According to patent US6558686B1, “Method of coating medical devices with a combination of antiseptics and antiseptic coating therefor” (Baylor College of Medicine, priority 1995, dated 2003):

Columns and labels:
Staph. epidermidis = assay: Zones of inhibition, coated stainless steel cylinders on agar (Example 1); assay type: cell-based, Staphylococcus epidermidis; conditions: coated stainless steel cylinder, 18-24 hours at 37° C.
Description: (§1) Antiseptic coatings were applied to each of four stainless steel cylinders (0.5″ diameter×2″ length), using each of the above four antiseptic solutions, by dipping each cylinder for 1 minute at 50° C. in the respective solution.

Pseud. aeruginosa = assay: as above; assay type: cell-based, Pseudomonas aeruginosa; conditions: coated stainless steel cylinder, 18-24 hours at 37° C.
Description: as §1

Candida albicans [1] = assay: as above; assay type: cell-based; conditions: coated stainless steel cylinder, 18-24 hours at 37° C.
Description: as §1

Candida albicans [2] = assay: Antimicrobial activity of coated silicone urinary catheters, initial and after 1 week in urine (Example 5); assay type: cell-based; conditions: for Candida albicans 1 week (antimicrobial activity of coated catheter): catheter segments incubated in urine for 1 week at 37° C.; for Candida albicans Initial (antimicrobial activity of coated catheter): silicone urinary catheter
Description: (§2) A first antiseptic solution was formed by dissolving chloroxylenol (200 mg/ml) in an 85:15 solution of butyl acetate: methanol that has NaOH (5 mg/ml of methanol). A second antiseptic solution was formed by dissolving thymol (150 mg/ml) in an 85:15 solution of butyl acetate: methanol that has NaOH (5 mg/ml of methanol). A third antiseptic solution was formed by dissolving chloroxylenol (200 mg/ml) and thymol (150 mg/ml) in an 85:15 solution of butyl acetate: methanol that has NaOH (5 mg/ml of methanol). Eighteen-french silicone urinary catheters were dipped in one of the above coating solutions for 1 hour at 45° C. The catheters were allowed to dry overnight then rinsed.

E. coli = assay: as above; assay type: cell-based; conditions: for E. coli 1 week (antimicrobial activity of coated catheter): catheter segments incubated in urine for 1 week at 37° C.; for E. coli Initial (antimicrobial activity of coated catheter): silicone urinary catheter
Description: as §2

Enterococcus = assay: as above; assay type: cell-based; conditions: for Enterococcus 1 week (antimicrobial activity of coated catheter): catheter segments incubated in urine for 1 week at 37° C.; for Enterococcus Initial (antimicrobial activity of coated catheter): silicone urinary catheter
Description: as §2

S. epidermidis [3] = assay: as above; assay type: cell-based; conditions: for S. epidermidis 1 week (antimicrobial activity of coated catheter): catheter segments incubated in urine for 1 week at 37° C.; for S. epidermidis Initial (antimicrobial activity of coated catheter): silicone urinary catheter
Description: as §2

Pseudomonas = assay: as above; assay type: cell-based, Pseudomonas aeruginosa; conditions: for Pseudomonas 1 week (antimicrobial activity of coated catheter): catheter segments incubated in urine for 1 week at 37° C.; for Pseudomonas Initial (antimicrobial activity of coated catheter): silicone urinary catheter
Description: as §2

P. aerug = assay: Zones of inhibition, single-layer coated stainless steel cylinders (Example 4); assay type: cell-based; conditions: single-layer coated stainless steel cylinder, 18-24 hours at 37° C.
Description: (§3) Stainless steel cylinders (0.5×2″) were dipped in one of the three antiseptic coating solutions for 1 minute at 50° C. Devices were allowed to dry for at least 4 hours, then placed into agar plates that had been freshly overlaid with one of the microorganisms shown below in Table 4. After 18-24 hours of incubation at 37° C., the following measurements of zones of inhibition were recorded.

Candida albicans [4] = assay: as above; assay type: cell-based; conditions: single-layer coated stainless steel cylinder, 18-24 hours at 37° C.
Description: as §3

[5] = cited from earlier work
S. epidermidis [6] = assay: Zones of inhibition, single-layer coated stainless steel cylinders (Example 4); conditions: single-layer coated stainless steel cylinder, 18-24 hours at 37° C.
Description: as §3

SMILES | Zones of inhibition Staph. epidermidis (Staph. epidermidis) | Zones of inhibition Pseud. aeruginosa (Pseud. aeruginosa) | Zones of inhibition Candida albicans (Candida albicans [1]) | Candida albicans 1 week (antimicrobial activity of coated catheter) (Candida albicans [2]) | Candida albicans Initial (antimicrobial activity of coated catheter) (Candida albicans [2]) | E. coli 1 week (antimicrobial activity of coated catheter) (E. coli) | E. coli Initial (antimicrobial activity of coated catheter) (E. coli) | Enterococcus 1 week (antimicrobial activity of coated catheter) (Enterococcus) | Enterococcus Initial (antimicrobial activity of coated catheter) (Enterococcus) | S. epidermidis 1 week (antimicrobial activity of coated catheter) (S. epidermidis [3]) | S. epidermidis Initial (antimicrobial activity of coated catheter) (S. epidermidis [3]) | Pseudomonas 1 week (antimicrobial activity of coated catheter) (Pseudomonas) | Pseudomonas Initial (antimicrobial activity of coated catheter) (Pseudomonas) | Zones of inhibition P. aerug (P. aerug) | Zones of inhibition Candida albicans (Candida albicans [4]) | Solubility in acetic acid ([5]; acetic acid) | Solubility in formic acid ([5]; formic acid) | Solubility in organic solvents ([5]; organic solvents) | Zones of inhibition S. epidermidis (S. epidermidis [6])
Cc1ccc(C(C)C)c(O)c1 [Thymol, 5-methyl-2 isopropyl phenol] | 23 m.m. | 18 m.m. | 14 m.m. | 38 | 60 | 28 | 35 | 17 | 28 | 30 | 38 | 0 | 11 |  |  |  |  |  | 
Cc1cc(O)cc(C)c1Cl [Chloroxylenol, 4-chloro, 3,5-dimethyl phenol] |  |  |  | 26 | 30 | 11 | 15 | 10 | 13 | 20 | 25 | 0 | 10 |  |  |  |  |  | 
[H]/N=C(\N/C(=N/[H])NCCCCCCNC(=N)NC(=N)Nc1ccc(Cl)cc1)Nc1ccc(Cl)cc1 [Chlorhexidine] | 31 m.m. | 28 m.m. | 26 m.m. |  |  |  |  |  |  |  |  |  |  | 25 m.m. | 28 m.m. | soluble | soluble | generally not soluble | 30 m.m.
